Assay results taken from patent EP0876160B1, “LIGAND DIRECTED ENZYME PRODRUG THERAPY” (priority 1996, dated 1997).

Assays:
[1] = tested on: human umbilical vein endothelial (Hu-V-ec) cells; experiment: VEGF-directed cytotoxicity assay, cell growth by [3H]-thymidine incorporation; format: cell-based
Protocol: (§1) Confluent Hu-V-ec cells were cultured in the absence (control, lane 1) or presence of 1mM CMDA prodrug (+ CMDA, lane 2) for 18 hours. After incubation, the cells were diluted into fresh dishes (at a dilution of 3 fold) and allowed to grow for a further 6 days after which time the survival of the cells was determined by [^3H] thymidine incorporation. The results are expressed in terms of the % growth in terms of the control, which were considered to represent 100% cell growth.
Confluent Hu-V-ec cells were cultured in the absence of any additions (control, lane 3) or in the presence of CPH6 (27 nM, lane 4), or of V115CPH6 (11nM, lane 5) for 30 min. The cells were then washed 6 times with fresh medium and incubated overnight in the presence of 1mM CMDA. The cells were re-plated at a dilution of 1/3 and allowed to grow for a further 4 days after which time the cell growth was estimated by [3H]thymidine incorporation. The results are expressed in terms of the % growth in terms of the control lane, which were considered to represent 100% cell growth.
The fusion proteins were assesed for their ability to direct the CMDA-dependent killing of cells which express specific receptors for VEGF on their surface. For this analysis, we employed human umbilical vein endothelial (Hu-V-ec) cells, which are dependent for growth on VEGF (Prog Growth Factor Res, 5, 89, 1994). […] The cells were incubated in the presence of CPH6, or V115CPH6 for 30 min to allow the fusion proteins to bind to the cell surface and then the cells were washed to remove unbound protein. CMDA was added and cell survival was determined by [3H]-thymidine incorporation.

NIH3T3 cells = experiment: Non-specific cytotoxicity assay, cell growth by [3H]-thymidine incorporation; format: cell-based
Protocol: as §1, with “Confluent NIH3T3” for “Confluent Hu-V-ec”, “prodrug (+CMDA,” for “prodrug (+ CMDA,”, “of 100” for “of 3”
Confluent NIH3T3 cells were cultured in the presence of 1mM CMDA prodrug in the absence of any additions (control, lane 3) or in the presence of the indicated fusion proteins (lanes 4-8). The additions were : lane 4, CPH6; lane 5, CPV161H6; lane 6, V161CPH6; lane 7, V115CPH6; lane 8, pEFCPV109H6. For each fusion, 0.3 to 0.9 nM of the fusions were added as determined by quantitative immunoprotein blotting. The cells were incubated and processed as in section A above for cell growth. […]
For the first assay, we wished to establish that CPH6 and the fusion proteins were able to direct prodrug dependent cyotoxicity of NIH3T3 cells, in a non-targeted manner. […] Samples of the purified proteins were added to NIH3T3 cells in the presence of the CMDA prodrug and the effects on cell viability were determined by measuring cell growth by [3H]-thymidine incorporation.

[2] = target: bacterially produced CPG2 (Carboxypeptidase G2, wild type) (Pseudomonas sp., UniProt P06621); settings: substrate MTX; cited from earlier work
[3] = target: VEGF/CPG2 fusion protein V161CPH6 (VEGF amino acids 1-161 fused to CPG2 amino acids 23-415, polyhistidine tag), SEQ ID No. 8 (UniProt P06621+P15692, form not given/N222Q/N264Q/N272Q); settings: substrate MTX; V161CPH6 expressed in Sf9 cells, Ni++-NTA purified; 25°C, pH 7.3
Description: (§2) Using this protocol, CPH6, V161CPH6, V115CPH6 and CPV109H6 were all purified from Sf9 cells by Ni++-NTA-Agarose affinity chromatography as described above. These samples were used to determine the affinity of the CPG2 moiety for the substrate MTX.

[4] = target: Carboxypeptidase G2 (CPG2) construct CPH6 (c-erbB2 signal peptide, CPG2 amino acids 23-415, three Asn -> Gln glycosylation-site mutations N222, 264 and 272 > Q, (Pseudomonas sp., UniProt P06621, N222Q/N264Q/N272Q)); settings: substrate MTX; CPH6 expressed in Sf9 cells, Ni++-NTA purified; 25°C, pH 7.3
Description: as §2

[5] = target: CPG2/VEGF fusion protein CPV109H6 (CPG2 amino acids 23-415 fused via peptide spacer to VEGF amino acids 1-109, polyhistidine tag), SEQ ID No. 18 (UniProt P06621+P15692, form not given/N222Q/N264Q/N272Q); settings: substrate MTX; CPV109H6 expressed in Sf9 cells, Ni++-NTA purified; 25°C, pH 7.3
Description: as §2

[6] = target: VEGF/CPG2 fusion protein V115CPH6 (VEGF amino acids 1-115 fused to CPG2, polyhistidine tag), SEQ ID No. 10 (UniProt P06621+P15692, form not given/N222Q/N264Q/N272Q); settings: substrate MTX; V115CPH6 expressed in Sf9 cells, Ni++-NTA purified; 25°C, pH 7.3
Description: as §2

CS(=O)(=O)OCCN(CCCl)c1ccc(C(=O)N[C@@H](CCC(=O)O)C(=O)O)cc1 [CMDA, N-4-[(2-chloroethyl)(2-mesyloxyethyl)amino]benzoyl-L-glutamic acid]
sensitivity (growth rate) ([1]; 1mM CMDA alone, 18 hours): not significantly sensitive
growth rate of the cells ([1]; cells pre-incubated with CPH6 (27 nM) 30 min, washed, then 1mM CMDA overnight): no significant affect on the growth rate
inhibition of cell growth ([1]; cells pre-incubated with V115CPH6 (11nM) 30 min, washed, then 1mM CMDA overnight): > 90%
growth of cells (NIH3T3 cells; 1mM CMDA alone, 18 hours, then 6 days growth): does not significantly affect the growth
cell death (NIH3T3 cells; 1mM CMDA in the presence of sub-nanomolar (0.3 to 0.9 nM) CPH6 or each of the fusion proteins): complete cell death

CN(Cc1cnc2nc(N)nc(N)c2n1)c1ccc(C(=O)N[C@@H](CCC(=O)O)C(=O)O)cc1 [MTX, Methotrexate]
Km [2]: ~10 µM
Km [3]: 18.2 ± 1.5 µM
Km [4]: 19.6 ± 3.2 µM
Km [5]: 9.1 ± 1.1 µM
Km [6]: 17 ± 1 µM
